Holding throughout (assay): NCI-60 cell line screen, 48 h
The test system of experiment [1] is SF-295 CNS.
The test system of experiment [2] is RPMI-8226 leukemia.
Experiment [3] concerns HCC-2998 colon.
The subject of experiment [4] is SK-MEL-2 melanoma.
Experiment [5] deals with HT29 colon.
In experiment [6] the test system is BT-549 breast.
Experiment [7] concerns M14 melanoma.
The subject of experiment [8] is 786-0 renal.
For experiment [9], the system named is ACHN renal.
Experiment [10] deals with SK-MEL-5 melanoma.

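In this assay, cells in 96-well plates receive the compound at five concentrations for 48 hours. Endpoints are linearly interpolated between the surrounding concentrations. The concentration for 50% growth inhibition is given as GI50. TGI denotes the concentration required for complete inhibition of growth.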 A value given as a limit tells only on which side of the number the result lay.

Turning to `FC(F)(F)c1ccc(-c2ncc(-c3ccc(C(F)(F)F)cc3)c(NCc3cc(C(F)(F)F)cc(C(F)(F)F)c3)n2)cc1`, the GI50 is 2.94 µM in experiment [1]; 4.24 µM in [2]; 5.76 µM in experiment [3]; 2.84 µM in experiment [4]; 6.95 µM in experiment [5]; 7.91 µM in experiment [6]. For the same molecule, the GI50 is 4.38 µM in experiment [7], 3.87 µM in experiment [8], 3.91 µM in [9] and 16.5 µM in experiment [10]. Also, the TGI in [1] was 28.3 µM; in experiment [2] it was 35.3 µM; in experiment [3], 46.7 µM; in [4], 8.93 µM; in experiment [5] it was more than 100 µM; in [6], more than 100 µM. In addition, the TGI in experiment [7] was more than 100 µM; in experiment [8], more than 100 µM; in experiment [9] it was more than 100 µM; in [10], 41.8 µM.

As to `O=C1c2cccnc2C(=O)c2c1c(C(=O)OCCc1ccccn1)c1ccccn21`, the GI50 in [1] was 0.342 µM; in [2] it was 0.219 µM; in experiment [3], 0.12 µM; in experiment [4] it was 0.351 µM; in experiment [5], 1.54 µM; in [6], 0.0671 µM. For the same molecule, the GI50 is 0.0262 µM in experiment [7], 0.252 µM in experiment [8], less than 0.01 µM in experiment [9] and 0.0332 µM in experiment [10]. The TGI in experiment [1] was 1.77 µM; in experiment [3] it was 2.08 µM; in experiment [4] it was 3.47 µM; in experiment [5], 3.35 µM; in experiment [6] it was 2.11 µM; in experiment [7], 0.33 µM. Also, the TGI in [8] was 1.26 µM; in [9] it was 1.22 µM; in [10], 0.299 µM.

`c1ccc(-c2cn(-c3ccccc3)c(-c3ccccc3)n2)cc1`: the GI50 in experiment [1] was 12.9 µM; in experiment [2] it was 2.31 µM; in experiment [3] it was 7.82 µM; in experiment [4] it was 13.9 µM; in [5], 4.79 µM; in experiment [6] it was 16 µM. In addition, the GI50 in experiment [7] is 11 µM; in experiment [8], 2.3 µM; in experiment [9], 15.4 µM; in [10] it was 14.9 µM. The TGI was found to be 28.4 µM in [1]; 5.47 µM in experiment [2]; 20.6 µM in experiment [3]; 27.2 µM in [4]; 20.4 µM in [5]; 30.5 µM in [6]. Moreover, the TGI in [7] worked out at 23.8 µM; in experiment [8], 4.67 µM; in experiment [9] it was 28.7 µM; in experiment [10], 28.3 µM.

As to `C/C(=N/NC(=S)N1CC2CCC(CC2)C1)c1cnccn1`, the TGI was 12.1 µM in experiment [1]; 4.95 µM in [2]; 13.6 µM in experiment [3]; 8.75 µM in experiment [4]; 12.2 µM in experiment [5]; 16.7 µM in experiment [6]. Moreover, the TGI in [7] is 1.85 µM; in experiment [8], 5.65 µM; in [9], 10.1 µM; in experiment [10], 2.32 µM.

As for `CCC(C)CC(C)C(=O)c1c(O)ccn(O)c1=O` (configuration not stated), the GI50 is 5.22 µM in experiment [1]; 0.901 µM in experiment [2]; 6 µM in [3]; 3.63 µM in experiment [4]; 27.2 µM in experiment [5]; 2.56 µM in experiment [6]. Besides, the GI50 is 1.61 µM in [7], 3.65 µM in [8], 0.775 µM in [9] and 1.53 µM in experiment [10]. The TGI in [1] is 49.6 µM; in experiment [2], 36.8 µM; in experiment [3], more than 100 µM; in experiment [4], 48.6 µM; in experiment [5] it was more than 100 µM; in experiment [6], 37.9 µM. Also, the TGI in experiment [7] is 15 µM; in experiment [8] it was more than 100 µM; in experiment [9] it was more than 100 µM; in experiment [10], 6.1 µM.

With `NS(=O)(=O)c1ccc(N=C2C(=O)Nc3ccccc32)cc1`, the TGI in experiment [1], in experiment [2], in experiment [3], in experiment [4], in experiment [5] and in experiment [6] was more than 100 µM throughout. Moreover, the TGI in experiment [7], in experiment [8], in [9] and in [10] was more than 100 µM throughout.

On to `O=C1NC(=O)C(c2ccccc2)=C1Nc1ccccc1`, for which the GI50 in experiment [1], in experiment [2], in experiment [3], in experiment [4], in [5] and in [6] was more than 25 µM in each case. Further, the GI50 in experiment [7], in experiment [8], in [9] and in experiment [10] was more than 25 µM in each case. Further, the TGI in [1], in experiment [2], in [3], in experiment [4], in experiment [5] and in experiment [6] was more than 25 µM in each case. Moreover, the TGI in experiment [7], in experiment [8], in experiment [9] and in experiment [10] was more than 25 µM each time.

Turning to `COc1ccc(/C=C/C(=O)c2ccc(Nc3nc(Nc4ccc(F)cc4)nc(Nc4ccc(Cl)cc4)n3)cc2)cc1`, the GI50 was more than 100 µM in experiment [1]; 6.91 µM in experiment [2]; more than 100 µM in experiment [3]; 41.3 µM in experiment [4]; 29.6 µM in experiment [5]; more than 100 µM in experiment [6]. The GI50 in experiment [7] was more than 100 µM; in [8], more than 100 µM; in [9], more than 100 µM; in experiment [10] it was 1.03 µM. Also, the TGI in experiment [1], in experiment [2], in [3], in [4], in experiment [5] and in experiment [6] was more than 100 µM each time. Moreover, the TGI in [7] was more than 100 µM; in [8], more than 100 µM; in experiment [9], more than 100 µM; in [10] it was 27.2 µM.

Consider `O=C(c1cccs1)c1nc2cc(Cl)ccc2[n+]([O-])c1C(F)(F)F`, for which the GI50 in experiment [1] was 91.3 µM; in experiment [2], 64 µM; in [3], 87.4 µM; in [4], 51.2 µM; in [5] it was 58.9 µM; in experiment [6] it was more than 100 µM. Moreover, the GI50 is more than 100 µM in experiment [7], more than 100 µM in experiment [8], more than 100 µM in experiment [9] and 45.4 µM in [10]. The TGI in experiment [1], in [2], in experiment [3], in [4], in experiment [5] and in experiment [6] was more than 100 µM in each case. Moreover, the TGI in experiment [7], in [8], in experiment [9] and in experiment [10] was more than 100 µM each time.

For `O=C(Cc1ccc(Nc2ccnc(C(F)(F)F)c2)cc1)N/N=C/c1ccccc1O`, the GI50 in [1] was 2.72 µM; in [2], 0.824 µM; in [3], 1.16 µM; in [4], 3.12 µM; in experiment [5] it was 6.53 µM; in experiment [6], 2.43 µM. Besides, the GI50 in experiment [7] is 1.82 µM; in experiment [8], 3.59 µM; in [9] it was 1.46 µM; in experiment [10], 2.58 µM. Moreover, the TGI in experiment [1] was 38 µM; in experiment [2], 16.2 µM; in experiment [3], 10.8 µM; in [4], 24.5 µM; in [5] it was 56 µM; in experiment [6], more than 39.2 µM. In addition, the TGI in experiment [7] was 19.5 µM; in experiment [8] it was more than 62.7 µM; in experiment [9], more than 51.4 µM; in [10], 11.1 µM.

`O=C(O)c1ccc(C(=O)O)c(C(=O)O)c1.[NH-]C1CCCCC1[NH-].[Pt+2]`: the GI50 in experiment [1] is 5.52 µM; in experiment [2], 0.581 µM; in [3], 13.4 µM; in experiment [4], 14.3 µM; in experiment [5], 0.998 µM; in experiment [6], 23.8 µM. In addition, the GI50 is 9.61 µM in experiment [7], 1.99 µM in [8], 1.96 µM in experiment [9] and 1.43 µM in [10]. Further, the TGI in [1] was determined as 68.6 µM; in [2] it was 48.9 µM; in experiment [3], 48.7 µM; in [4], 61.4 µM; in experiment [5], 54.9 µM; in experiment [6], 54.2 µM. Besides, the TGI in experiment [7] is 37.4 µM; in experiment [8], more than 74.7 µM; in experiment [9] it was 44.1 µM; in experiment [10], 14.5 µM.

`CCCOc1ccc(/C=N/Nc2cc(C)nc3ccc(Cl)cc23)cc1`: the GI50 in experiment [1] was 1.72 µM; in experiment [2], 1.81 µM; in experiment [3], 2.03 µM; in experiment [4], 1.73 µM; in [5], 1.8 µM; in experiment [6], 2.17 µM. Besides, the GI50 in [7] was 1.69 µM; in experiment [8], 1.86 µM; in experiment [9], 1.74 µM; in experiment [10], 1.54 µM. Besides, the TGI in experiment [1] was 3.2 µM; in experiment [2] it was 3.99 µM; in experiment [3], 3.53 µM; in experiment [4] it was 3.22 µM; in experiment [5], 3.49 µM; in [6], 5.46 µM. Further, the TGI in [7] stood at 3.23 µM; in [8] it was 3.42 µM; in [9], 3.12 µM; in experiment [10] it was 2.88 µM.

Regarding `Oc1ccc(Cc2ccc(O)c(C3CC(c4ccc(Cl)cc4)=NN3)c2)cc1C1CC(c2ccc(Cl)cc2)=NN1` (configuration not stated), the GI50 in [1] was 2.39 µM; in experiment [2], 3.89 µM; in experiment [3] it was 3.71 µM; in experiment [4], 2.96 µM; in experiment [5], 6.41 µM; in experiment [6] it was 4.19 µM. In addition, the GI50 in experiment [7] was 3.93 µM; in experiment [8], 3.53 µM; in experiment [9], 3.1 µM; in experiment [10] it was 2.81 µM. Also, the TGI in experiment [1] was more than 42.9 µM; in [2] it was more than 100 µM; in [3] it was more than 30.8 µM; in experiment [4] it was 10.5 µM; in [5], more than 44.6 µM; in experiment [6], 23.3 µM. The TGI is more than 39.3 µM in experiment [7], more than 40.2 µM in [8], more than 31.8 µM in [9] and 11.5 µM in experiment [10].

In the case of `FC(F)(F)c1cc(-c2ncn(/C=C\c3nnco3)n2)cc(C(F)(F)F)c1`, the GI50 in [1] is 0.0634 µM; in [2], 0.0336 µM; in experiment [3], 0.317 µM; in [4], 0.031 µM; in experiment [5], 0.12 µM; in experiment [6] it was 0.0719 µM. In addition, the GI50 in experiment [7] is 0.372 µM; in [8], 0.0869 µM; in [9] it was 0.163 µM; in [10], 0.165 µM. For the same molecule, the TGI in [1] was more than 43.3 µM; in experiment [2], 15.6 µM; in experiment [3] it was 11.1 µM; in experiment [4] it was 0.251 µM; in experiment [5] it was 48.2 µM; in experiment [6] it was 2.44 µM. Also, the TGI in [7] was more than 34.6 µM; in experiment [8] it was more than 32.3 µM; in experiment [9], more than 96.2 µM; in experiment [10] it was 2.74 µM.

Consider `COc1cc2c(cc1OCCCCn1c(-c3cccs3)nc3ccccc31)N=C[C@@H]1CCCN1C2=O`, for which the GI50 was 0.314 µM in experiment [2]; 2.08 µM in experiment [3]; 1.47 µM in experiment [4]; 1.97 µM in experiment [5]; 0.417 µM in experiment [6]; 1.35 µM in [7]. Moreover, the values for the GI50 in experiment [8], in experiment [9] and in [10] were 1.71 µM, 2.81 µM and 1.09 µM, respectively. The TGI was found to be 1.62 µM in experiment [2]; 4.5 µM in experiment [3]; 4.68 µM in experiment [4]; 14.6 µM in experiment [5]; 1.2 µM in experiment [6]; 2.8 µM in experiment [7]. In addition, the TGI in [8] came out at 5.9 µM; in [9] it was 7.73 µM; in experiment [10] it was 2.3 µM.

Values taken from PubChem BioAssay (NCI).
